According to publication PMC8364340 (Drug Design, Development and Therapy, 2021):

System: STZ-induced diabetic rats
Assay: Blood glucose-lowering efficacy in STZ-induced diabetic rats
Type: in vivo
Conditions: subcutaneous, 100 nmol/kg, mean ± SD, n=6

## Humulin R: Recombinant Human Insulin Injection (Humulin R, 3mL:300IU), Lilly France
glucometer, trapezoidal rule
  AUC for Glucose AUC0-24h: 10,990 ± 415.5 mg·h/dL
  AUC for Glucose AUC0-1h: 421 ± 20.4 mg·h/dL
  AUC for Glucose AUC0-2h: 724 ± 52.2 mg·h/dL
  AUC for Glucose AUC0-4h: 1328 ± 100.1 mg·h/dL
  AUC for Glucose AUC0-6h: 2156 ± 132.0 mg·h/dL
  AUC for Glucose AUC0-8h: 3092 ± 174.8 mg·h/dL
  AUC for Glucose AUC0-12h: 5070 ± 259.4 mg·h/dL
  AUC for Glucose AUC0-16h: 7146 ± 321.1 mg·h/dL
